Values quoted from earlier work, collected in patent publication US20190070136A1 (ASPIRO PHARMA LIMITED, priority 2017, published 2019).

O=NN(CCCl)C(=O)NCCCl [Carmustine, 1,3-bis (2-chloroethyl)-1-nitrosourea]
Log P: 1.53
